# How the values were obtained:
# Assay type in all cases: cell-based, human
# [1] = tested on: CD4+ T-cell clone (PAPc66); experiment: Peptide promiscuity assay: HLA-DRβ1 homozygous EBV-LcL lines present the peptide to PAPc66, IFNγ and granzyme B measured by ELISA
# From the text: FIG. 3. PAP257-271 is a promiscuous MHC class II PAP epitope recognized by the T cell clone PAPc66. (A) The peptide, PAP257-271 (RLQGGVLVNNEILNHM; SEQ ID NO:1), recognized by a CD4+ T-cell clone (PAPc66) in the context of MHC class II, is capable of inducing T-cell activation when presented by lymphoblastoid cell lines representing 9 different HLA-DR serological families (β chain; DR1, DR4, DR7, DR8, DR11, DR12, DR13, DR14, DR15) having over 15 distinct HLA-DRβ1 alleles. […] The assay was set up in 96 well round bottom plates with PAPc66 at 1×10^5 cells/well, PAP257-271 at 2 μg/mL and 2×10^5 EBV-LcL per well in complete RPMI+10% FBS. Each HLA-DR[…]EBV-LcL line, homozygous for the HLA-DRβ1 allele shown, was tested for the ability to present PAP257-271 to PAPc66. An irrelevant PAP peptide and no peptide control were also included. After 48-hour incubation at 37° C. and 5% CO2, supernatants were tested for IFNγ and granzyme B (B) by ELISA. Results are shown with background (no peptide) for each EBV-LcL line and PAPc66 subtracted.
# HLA-DRβ1 EBV-LcL lines were purchased from the European Collection of Cell Cultures originating from the 12th International Histocompatibility Workshop (IHW) held in Strasbourg, France. HLA-DR EBV-transformed lymphoblastoid cells were homozygous for the HLA-DRβ1 allele (Table I). EBV-LcL were also generated from various subject PBMC using supernatant from the B95-8 cell line (ATCC, Manassas, Va.) for the expansion and testing of autologous T cell clones.
# (§1) All assays were set up in triplicate in 96-well round bottom plates with antigen or peptide in cRPMI 1640+10% FBS (Fetal Bovine Serum (Invitrogen, Carlsbad, Calif.)), T cell clones at 1×10^5 cells/well and antigen presenting cells at 2×10^5 cells/well. […]
# (§2) IFN[…] production was measured using anti-human IFNγ antibody pairs for ELISA (BD Pharmingen, San Diego, Calif.). […] 2M HCl was added to stop the reaction and plates were read for absorbance at 492 nm on a spectrophotometer. […]
# [2] = tested on: CD4+ T-cell clone (PAPc66); experiment: MHC Class II blocking assay with autologous EBV-LcL, IFNγ ELISA; details: peptide at 2 μg/mL, 48 hours
# Protocol: FIG. 2. PAPc661 is MHC class II restricted. PAPc66 was stimulated with autologous EBV-LcL at 2×10^5 cells/mL and PAP257-271 at 2 μg/mL in the presence of MHC Class II blocking antibodies. The assay was set up in 96 well round bottom plates in complete RPMI media +10% FBS with anti-HLA-DR ♦ (Dendreon) and anti-HLA-DP ▪ or anti HLA-DQ ▴ (Leinco Technologies, Inc., St. Louis, […].) at the concentrations shown. Anti-HLA-A2 antibody (∘) was used as a negative control. PAPc66 was added to all wells at 1×10^5 cells/well and the assay was incubated for 48 hours at 37° C. and 5% CO2. After the incubation, supernatants were harvested and tested for IFNγ by ELISA. IFNγ was not detected for conditions without peptide.
# as §1, with “cells/well. Autologous EBV-LcL were used for antigen presenting cells in specificity assays and assays conducted to show peptide promiscuity using the HLA-DRB1 EBV-LcLs. All assays were incubated for 48 hours at 37° C. with 5% CO2.” for “cells/well.”
# as §2
# [3] = tested on: CD4+ T-cell clone (PAPc66); experiment: Antigen specificity of T cell clone PAPc66 with autologous EBV-LcL, IFNγ ELISA
# Protocol: FIG. 1. T cell clone PAPc66 recognizes a naturally processed epitope from PAP. (A) PAP fusion proteins PA2024, CHOPA2024 and hPAPGM and PAP from a baculoviral expression system (iPAP) and mammalian expression system (CHOPAP) were titrated with autologous EBV-LcL and PAPc66. Assay was set up in 96 well round bottom plates with 1×10^5 cells/well of PAPc66, 2×10^5 cells/well EBV-LcL and antigens at 50 μg/mL (black bars), 25 μg/mL (stripe bars) and 12.5 μg/mL (dot bars) in complete RPMI media with 10% FBS. Assay was incubated for 48 hours at 37° C. with 5% CO2 at which time supernatants were harvested and tested for IFNγ by ELISA. (B) To map the specific PAP peptide, chemically synthesized peptides from the PAP sequence were used. These 94 peptides were 15 amino acids in length overlapping by 11 amino acids and were individually tested for the ability to stimulate PAPc66 using autologous EBV-LcL and each peptide at 2 μg/mL in the assay. The assay was set up as in (A) and supernatants were tested for IFNγ by ELISA. […] Supernatants were analyzed for peptide specific IFNγ production by ELISA. […]
# as §2
sequence,measurement,setting,value
"RLQGGVLVNEILNHM (residues 257-271 of human prostatic acid phosphatase (PAP), PAP epitope 257-271, Peptide #65, PAP-257-271) [PAP257-271, peptide corresponding to residues 257-271 of the human PAP protein]",cytokine production by clone PAPc66 upon activation with the presented peptide,[1]; IFNγ and granzyme B ELISA of supernatants,produce IFNγ and granzyme B upon activation
same,number of distinct HLA-DRβ1 alleles presenting the peptide with T-cell activation,"[1]; peptide at 2 μg/mL, 48 hours, EBV-LcL homozygous for the HLA-DRβ1 allele",over 15
same,number of different HLA-DR serological families whose lymphoblastoid cell lines present the peptide and induce T-cell activation,"[1]; peptide at 2 μg/mL, 48 hours, PAPc66 1×10^5 cells/well, 2×10^5 EBV-LcL per well",9
same,"MHC class II restriction of presentation (blocking antibodies anti-HLA-DR, -DP, -DQ)",[2],presented both in the context of HLA-DR and HLA-DQ
same,nature of the epitope recognized by PAPc66 (summary of FIGS. 1-3),[3],"naturally processed, MHC class II-restricted promiscuous epitope"

# Reference: US8647865B2, “Promiscuous PAP CD4 T cell epitopes” (Dendreon Corporation, priority 2006, dated 2014)
